Measured values taken from patent US20200016062A1, “TERMINALIA FERDINANDIANA LEAF EXTRACT AND PRODUCTS CONTAINING EXTRACT OF TERMINALIA FERDINANDIANA LEAF” (RISING PHOENIX INDUSTRIES PTY LTD, priority 2016, published 2020).

Test system: C. jeikeium
Assay: modified disc diffusion assay, C. jeikeium
Format: cell-based, Corynebacterium jeikeium
Conditions: 10 μL extract per disc; vancomycin 5 μg disc; aerobic, 37° C., 24 hours
Procedure: Evaluation of antibacterial activity screening of the T. ferdinandiana fruit and leaf extracts was assessed using a modified disc diffusion assay.
100 μL of each individual bacteria (C. jeikeium, B. linens, P. acnes and S. epidermidis) was grown separately in 20 mL of the appropriate broth until an approximate count of 10^8 cells/mL was reached.
A volume of 100 μL of each bacterial suspension was spread onto agar plates and the extracts tested for antibacterial activity using 5 mm sterilised filter paper discs.
C. jeikeium cultures were spread onto nutrient agar plates supplemented with 300 μL Tween 80/L of agar.
Discs were infused with 10 μL of the individual extracts, allowed to dry and placed onto inoculated plates. The plates were left to stand at 4° C. for 2 hours before incubation.
Plates inoculated with B. linens, S. epidermidis or C. jeikeium cultures were incubated aerobically at 37° C. for 24 hours.
The diameters of the inhibition zones were measured to the closest whole millimetre. Each assay was completed in at least triplicate. […]
The ability of T. ferdinandiana leaf and fruit extracts to inhibit the growth of bacterial species under test associated with the production of body and foot odours were assessed. […]

## CN[C@H](CC(C)C)C(=O)N[C@H]1C(=O)N[C@@H](CC(N)=O)C(=O)N[C@H]2C(=O)N[C@H]3C(=O)N[C@H](C(=O)N[C@H](C(=O)O)c4cc(O)cc(O)c4-c4cc3ccc4O)[C@H](O)c3ccc(c(Cl)c3)Oc3cc2cc(c3O[C@@H]2O[C@H](CO)[C@@H](O)[C@H](O)[C@H]2O[C@H]2C[C@](C)(N)[C@H](O)[C@H](C)O2)Oc2ccc(cc2Cl)[C@H]1O [vancomycin]
  growth inhibitory activity against C. jeikeium (zones of inhibition): good inhibitor
